In patent publication US20030220361A1, “Nicotinamide derivatives and a tiotropium salt in combination for the treatment of diseases” (priority 2002, published 2003):

Tested on: TNFα release from human peripheral blood mononuclear cells
Assay: Inhibition of LPS-stimulated TNFα release from human peripheral blood mononuclear cells (TNFα screen)
Format: cell-based
Conditions: human PBMC, LPS stimulation, 18 hours incubation, TNFα in supernatant by ELISA
Method: Venous blood is collected from healthy volunteers and the mononuclear cells purified by centrifugation through Histopaque (Ficoll) cushions. TNFα production from these cells is stimulated by addition of lipopolysaccharide. After 18 hours incubation in the presence of LPS, the cell supernatant is removed and the concentration of TNFa in the supernatant determined by ELISA. Addition of PDE4 inhibitors reduces the. amount of TNFQ produced. An IC50 is determined which is equal to the concentration of compound that gives 50% inhibition TNFα production as compared to the LPS stimulated control wells.

IC50 [pM]	SMILES
90	Cc1cccc(C(=O)NC2CCC(NC(=O)c3cc(F)cnc3Oc3ccc(F)c(F)c3)CC2)c1O (stereo not shown) [Example 208]
13000	Cc1cccc(C(=O)NC2CCC(NC(=O)c3cc(F)cnc3Oc3ccc(Cl)c(F)c3)CC2)c1O (stereo not shown) [Example 210]
200	Cc1ccc(O)c(C(=O)NC2CCC(NC(=O)c3cc(F)cnc3Oc3cccc(F)c3)CC2)c1 (stereo not shown) [Example 213]
300	Cc1ccc(C(=O)NC2CCC(NC(=O)c3cc(F)cnc3Oc3cc(F)cc(F)c3)CC2)c(O)c1 (stereo not shown) [Example 217]
